Values quoted from earlier work in patent US9198988B2, “Nanoparticulate manganese MRI contrast agents” (Kent State University, priority 2011, dated 2015).

Columns and labels:
[1] = commercial MRI contrast agents
[2] = commercial MRI contrast agents; remark: listed apart in the source

| SMILES | r1 (relaxivity) [1] [mM⁻¹ s⁻¹] | LogKGdL (stability constant) [2] |
| --- | --- | --- |
| CC(O)CN1CCN(CC(=O)[O-])CCN(CC(=O)[O-])CCN(CC(=O)[O-])CC1.[Gd+3] (centres unmarked) [ProHance ®] | 4.4 | – |
| CNC[C@H](O)[C@@H](O)[C@H](O)[C@H](O)CO.O=C([O-])CN1CCN(CC(=O)[O-])CCN(CC(=O)O)CCN(CC(=O)[O-])CC1.[Gd+3] [Dotarem ®] | 4.2 | 25.3 |
| O=C([O-])CN(CCN(CC(=O)[O-])CC(COP(=O)([O-])OC1CCC(c2ccccc2)(c2ccccc2)CC1)N(CC(=O)[O-])CC(=O)[O-])CC(=O)[O-].[Gd+3].[Na+].[Na+].[Na+] (centres unmarked) [Vasovist] | 19 | 23.2 |
| O=C([O-])CN1CCN(CC(=O)[O-])CCN([C@H](CO)[C@H](O)CO)CCN(CC(=O)[O-])CC1.[Gd+3] (racemic) [Gadovist ®] | 5.3 | 20.8 |
| CNC[C@H](O)[C@@H](O)[C@H](O)[C@H](O)CO.CNC[C@H](O)[C@@H](O)[C@H](O)[C@H](O)CO.O=C([O-])CN(CCN(CC(=O)[O-])CC(=O)O)CCN(CC(=O)O)C(COCc1ccccc1)C(=O)[O-].[Gd+3] (centres unmarked) [MultiHance] | 6.7 | 18.4 |
| CNC(=O)CN(CCN(CCN(CC(=O)[O-])CC(=O)NC)CC(=O)[O-])CC(=O)[O-].[Gd+3] [Omniscan ®] | 4.6 | 16.8 |
| CCOc1ccc(CC(CN(CCN(CC(=O)[O-])CC(=O)[O-])CC(=O)[O-])N(CC(=O)[O-])CC(=O)[O-])cc1.[Gd+3].[Na+].[Na+] (centres unmarked) [Primovist] | 7.3 | 23.5 |
| CNC[C@H](O)[C@@H](O)[C@H](O)[C@H](O)CO.CNC[C@H](O)[C@@H](O)[C@H](O)[C@H](O)CO.O=C([O-])CN(CCN(CC(=O)[O-])CC(=O)O)CCN(CC(=O)[O-])CC(=O)O.[Gd+3] [Magnevist ®] | 4.3 | 22.2 |
| COCCNC(=O)CN(CCN(CCN(CC(=O)[O-])CC(=O)NCCOC)CC(=O)[O-])CC(=O)[O-].[Gd+3] [OptiMARK] | 5.2 | 16.8 |
